According to patent US10975068B2, “6-aminopyridin-3-yl thiazoles as modulators of RORγT” (Janssen Pharmaceutica NV, priority 2016, dated 2021):
Where two headings read alike, the source gives them in different places.

What was measured:
[1] = test system: IL-17 production by CD4 T cells; assay: Human Th17 assay; assay type: cell-based
Description: The human Th17 assay tests the effect of RORγt modulatory compounds on IL-17 production by CD4 T cells under conditions which favor Th17 differentiation. Total CD4^+ T cells were isolated from the peripheral blood mononuclear cells (PBMC) of healthy donors using a CD4^+ T cell isolation kit II, following the manufacturer's instructions (Miltenyi Biotec). Cells were resuspended in a medium of RPMI-1640 supplemented with 10% fetal bovine serum, penicillin, streptomycin, glutamate, and β-mercaptoethanol and were added to 96-well plates at 1.5×10^5 per 100 μL per well. 50 μL of compound at titrated concentrations in DMSO were added into each well at final DMSO concentration at 0.2%. Cells were incubated for 1 hour, then 50 μL of Th17 cell differentiation medium was added to each well. The final concentrations of antibodies and cytokines (R&D Systems) in differentiation medium were: 3×10^6/mL anti-CD3/CD28 beads (prepared using human T cell activation/expansion kit, Miltenyi Biotec), 10 μg/mL anti-IL4, 10 μg/mL anti-IFNγ, 10 ng/mL IL1β, 10 ng/mL IL23, 50 ng/mL IL6, 3 ng/mL TGFβ and 20 U/mL IL2. Cells were cultured at 37° C. and 5% CO2 for 3 days. Supernatants were collected and the accumulated IL-17 in culture was measured by using MULTI-SPOT® Cytokine Plate following manufacture's instruction (Meso Scale Discovery). The plate was read using Sector Imager 6000, and IL-17 concentration was extrapolated from the standard curve. The IC50s were determined by GraphPad.

full-length human RORγt = full-length human RORγt (Homo sapiens (Human), UniProt P51449); assay: RORγt (full-length human) reporter assay, Conditions B or C; assay type: cell-based; settings: for RORγt (FL) Reporter Assay B or C, % inhibition (value marked *): marked *: footnote not given; for IC50: read-out: RORγt (FL) Reporter Assay B or C, IC50
Chain of full-length human RORγt (P51449 other isoform, or with tags, fused parts or gaps): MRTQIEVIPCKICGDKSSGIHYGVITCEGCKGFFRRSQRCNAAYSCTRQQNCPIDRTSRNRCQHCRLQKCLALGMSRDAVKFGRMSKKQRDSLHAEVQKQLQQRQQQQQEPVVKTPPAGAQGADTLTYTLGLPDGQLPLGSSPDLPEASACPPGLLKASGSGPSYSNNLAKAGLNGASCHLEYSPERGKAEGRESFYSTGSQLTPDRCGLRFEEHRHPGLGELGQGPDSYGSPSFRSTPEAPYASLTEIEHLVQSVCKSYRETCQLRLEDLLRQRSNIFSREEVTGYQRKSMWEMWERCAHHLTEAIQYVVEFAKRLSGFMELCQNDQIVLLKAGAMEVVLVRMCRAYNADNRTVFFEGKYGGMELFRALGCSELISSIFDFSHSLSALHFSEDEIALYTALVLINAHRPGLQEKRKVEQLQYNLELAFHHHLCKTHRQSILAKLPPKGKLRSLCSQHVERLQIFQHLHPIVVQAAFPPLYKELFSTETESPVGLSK
How it was run: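 HEK293T cells transiently co-transfected with GAL4-DBD–full-length human RORγt (nt 142-1635, NM_001001523.1) plus GAL4-firefly and CMV-Renilla luciferase reporters; compounds added 4-6 h post-transfection for 16-20 h in 1.3% FBS, 0.1% DMSO. Firefly signal normalized to DMSO and saturating reference compound, then to Renilla; IC50 from concentration plots.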

[2] = read-out: Human Th17 Assay, IC50 (μM)
[3] = read-out: Human Th17 Assay, IC50

| RORγt (FL) Reporter Assay B or C, % inhibition (value marked *) (full-length human RORγt; Conditions B or C) | IC50 (full-length human RORγt; Conditions B or C) | IC50 [1, 3] | inhibition at 6 µM (full-length human RORγt; read-out: RORγt (FL) Reporter Assay B or C, % inhibition @ 6 μM, Conditions B or C, @ 6 μM) | Compound | IC50 [1, 2] | inhibition at 3 µM (full-length human RORγt; at 3 μM compound concentration, read-out: RORγt (FL) Reporter Assay B or C, % inhibition) | IC50 (full-length human RORγt) |
| --- | --- | --- | --- | --- | --- | --- | --- |
| 110* % | 49 nM | 0.014 µM | – | C[C@H](Nc1cc(C(F)(F)F)c(-c2sc(C(=O)NCC(C)(C)O)nc2C(=O)N2CCC[C@@H]2C)cn1)C(F)(F)F [Example 78, N-(2-Hydroxy-2-methylpropyl)-4-((S)-2-methylpyrrolidine-1-carbonyl)-5-(4-(trifluoromethyl)-6-(((S)-1,1,1-trifluoropropan-2-yl)amino)pyridin-3-yl)thiazole-2-carboxamide] | – | – | – |
| 86* % | 110 nM | 0.076 µM | – | CC[C@H](Nc1cc(C(F)F)c(-c2sc(C(=O)NCC(C)(C)O)nc2C(=O)N2CC(F)(F)C[C@@H]2C)cn1)C(F)(F)F [Example 90, 4-((S)-4,4-Difluoro-2-methylpyrrolidine-1-carbonyl)-5-(4-(difluoromethyl)-6-(((S)-1,1,1-trifluorobutan-2-yl)amino)pyridin-3-yl)-N-(2-hydroxy-2-methylpropyl)thiazole-2-carboxamide] | – | – | – |
| 100* % | 39 nM | 0.044 µM | – | C[C@H](Nc1cc(C(F)F)c(-c2sc(C(=O)NCC(C)(C)O)nc2C(=O)N2CC(F)(F)C[C@@H]2C)cn1)C(F)(F)F [Example 135] | – | – | – |
| 106* % | 29 nM | 0.017 µM | – | CC[C@H](Nc1cc(C(F)(F)F)c(-c2sc(C(=O)NCC(C)(C)O)nc2C(=O)N2CCC[C@@H]2C)cn1)C(F)(F)F [Example 111, N-(2-Hydroxy-2-methylpropyl)-4-((S)-2-methylpyrrolidine-1-carbonyl)-5-(6-(((S)-1,1,1-trifluorobutan-2-yl)amino)-4-(trifluoromethyl)pyridin-3-yl)thiazole-2-carboxamide] | – | – | – |

Second part, the molecule before the results:

| Compound | RORγt (FL) Reporter Assay B or C, % inhibition (value marked *) (full-length human RORγt; Conditions B or C) | IC50 (full-length human RORγt; Conditions B or C) | IC50 [1, 3] | inhibition at 6 µM (full-length human RORγt; read-out: RORγt (FL) Reporter Assay B or C, % inhibition @ 6 μM, Conditions B or C, @ 6 μM) | IC50 [1, 2] | inhibition at 3 µM (full-length human RORγt; at 3 μM compound concentration, read-out: RORγt (FL) Reporter Assay B or C, % inhibition) | IC50 (full-length human RORγt) |
| --- | --- | --- | --- | --- | --- | --- | --- |
| CC(C)(O)CNC(=O)c1nc(C(=O)N2C3CCC2CC3)c(-c2cnc(NC3(C)CCC3)cc2C(F)(F)F)s1 [Example 140, 4-((1s,4s)-7-Azabicyclo[2.2.1]heptane-7-carbonyl)-N-(2-hydroxy-2-methylpropyl)-5-(6-((1-methylcyclobutyl)amino)-4-(trifluoromethyl)pyridin-3-yl)thiazole-2-carboxamide] | 89* % | 11 nM | – | – | 0.011 µM | – | – |
| CC(C)(O)CNC(=O)c1nc(C(=O)N2C3CCC2CC3)c(-c2cnc(NCC(C)(C)C(F)(F)F)cc2C(F)(F)F)s1 [Example 122, 4-((1s,4s)-7-Azabicyclo[2.2.1]heptane-7-carbonyl)-N-(2-hydroxy-2-methylpropyl)-5-(6-((3,3,3-trifluoro-2,2-dimethylpropyl)amino)-4-(trifluoromethyl)pyridin-3-yl)thiazole-2-carboxamide] | 102* % | 33 nM | – | – | 0.02 µM | – | – |
| C[C@H](Nc1cc(C(F)F)c(-c2sc(C(=O)NCC(C)(C)O)nc2C(=O)N2CCCC[C@@H]2C)cn1)C1CC1 [Example 37, 5-(6-(((S)-1-Cyclopropylethyl)amino)-4-(difluoromethyl)pyridin-3-yl)-N-(2-hydroxy-2-methylpropyl)-4-((S)-2-methylpiperidine-1-carbonyl)thiazole-2-carboxamide] | – | 14 nM | 0.052 µM | 92.2% | – | – | – |
| C[C@H](NC(=O)c1nc(C(=O)N2CCC[C@@H]2C)c(-c2cnc(N[C@@H](C)C(F)(F)F)cc2C(F)F)s1)C(C)(C)O [Example 199, 5-(4-(Difluoromethyl)-6-(((S)-1,1,1-trifluoropropan-2-yl)amino)pyridine-3-yl)-N—((S)-3-hydroxy-3-methylburan-2-yl)-4-((S)-2-methylpyrrolidine-1-carbonyl)thiazole-2-carboxamide] | 94* % | 120 nM | 0.1 µM | – | – | – | – |
| C[C@H](NC(=O)c1nc(C(=O)N2CC(F)(F)C[C@@H]2C)c(-c2cnc(N[C@@H](C)C(F)(F)F)cc2C(F)F)s1)C(C)(C)O [Example 197] | 91* % | 66 nM | 0.03 µM | – | – | – | – |
| CC(C)(C)CNc1cc(C(F)F)c(-c2sc(C(=O)NCC(C)(C)O)nc2C(=O)N2C3CCC2CC3)cn1 [Example 116, 4-((1s,4s)-7-Azabicyclo[2.2.1]heptane-7-carbonyl)-5-(4-(difluoromethyl)-6-(neopentylamino)pyridin-3-yl)-N-(2-hydroxy-2-methylpropyl)thiazole-2-carboxamide] | 110* % | 34 nM | – | – | 0.044 µM | – | – |
| O=C(N[C@H]1C[C@H](O)C1)c1nc(C(=O)N2C3CCC2CC3)c(-c2cnc(N[C@@H](C3CC3)C(F)(F)F)cc2C(F)F)s1 [Example 318, 4-((1s,4s)-7-Azabicyclo[2.2.1]heptane-7-carbonyl)-5-(6-(((S)-1-cyclopropyl-2,2,2-trifluoroethyl)amino)-4-(difluoromethyl)pyridin-3-yl)-N-((1r,3S)-3-hydroxycyclobutyl)thiazole-2-carboxamide] | – | – | 0.017 µM | – | – | 86% | 28 nM |
| C[C@H]1CCCN1C(=O)c1nc(C(=O)NCC(C)(C)O)sc1-c1cnc(NC(C)(C)C)cc1C(F)(F)F [Example 52, (S)-5-(6-(tert-Butylamino)-4-(trifluoromethyl)pyridin-3-yl)-N-(2-hydroxy-2-methylpropyl)-4-(2-methylpyrrolidine-1-carbonyl)thiazole-2-carboxamide] | 106* % | 8.8 nM | 0.01 µM | – | – | – | – |
